# Measurements: patent publication US7973217B2, “Stem-regulated, plant defense promoter and uses thereof in tissue-specific expression in monocots” (The Texas A&M University System, priority 2003, dated 2011)
# Key:
# Type in all cases: in vivo
# GUS [1] = assay: Histochemical transient GUS expression in particle bombarded sorghum stem tissue; settings: versus Ubiquitin 1 promoter
# Text: (§1) FIG. 14 is a photomicrograph of particle bombarded maize and sorghum stem tissues showing histochemical localization of transient GUS expression driven by the stem-regulated OMT promoter or the constitutive maize ubiquitinl promoter.
# GUS [2] = assay: Histochemical transient GUS expression in particle bombarded maize stem tissue; settings: versus Ubiquitin 1 promoter
# Text: as §1
# OMT = assay: cDNA microarray of OMT expression in sugarcane plants sprayed with defense-inducing agents; settings: treated (Cy5) v. untreated control (Cy3), normalized
# Method: The 251 cDNA clones used for microarray analysis in Example 1 were further used to assess the effects of defense-inducing agents on the expression of the stem-specific genes.
# Total RNA was extracted from wild type sugarcane plants (3 months-old) that were sprayed with the defense-inducing agents jasmonic acid (JA) (25µM in 0.05.percent.Tween 20), methyl-jasmonate (MeJA) (200µM in 0.1.percent.ethanol and 0.05.percent.Tween 20) or salicylic acid (SA) (5 mM in 0.05.percent.Tween 20) for two time periods, 24 and 48 hours. The microarray including 251 cDNAs was probed with fluorescently labeled cDNAs synthesized from 1µg of total amplified RNA. One cDNA probe (e.g. RNA from plant treated with a defense-inducing agent) is labeled with one dye (Cy5), and the second (e.g. RNA from untreated control plant) with another dye (Cy3)
# The normalized ratio of Cy5 v.
Compound,Transient expression of GUS in stem tissue (GUS [1]),Transient expression of GUS in stem tissue (GUS [2]),Cy5/Cy3 Ratios (Upregulation) for OMT (OMT; 24 hours after spraying),Cy5/Cy3 Ratios (Upregulation) for OMT (OMT; 48 hours after spraying)
"OMT promoter: sugarcane o-methyl transferase gene promoter, SEQ ID NO:1, directing stem-regulated, defense-inducible expression",comparable to that obtained with the Ubiquitin 1 promoter,comparable to that obtained with the Ubiquitin 1 promoter,–,–
"CC/C=C\CC1C(=O)CCC1CC(=O)OC (stereo not shown) [MeJA, methyl-jasmonate]",–,–,0.70,0.97
"CC/C=C\C[C@H]1C(=O)CC[C@@H]1CC(=O)O [JA, jasmonic acid]",–,–,0.99,2.00
"O=C(O)c1ccccc1O [SA, salicylic acid]",–,–,–,2.00
